Data on two compounds can be found in patent US5491155A, “Substituted thiadiazoles, compositions containing them and their use as antimicrobial and marine antifouling agents” (The Dow Chemical Company, priority 1994, dated 1996).

The structures appear in SMILES notation. Converted amounts (≈) assume the structure as drawn. Where two headings read alike, the source gives them in different places.

One assay concerns Escherichia coli. Nature of the assay: MIC in nutrient agar, Escherichia coli. The assay is classed as cell-based, Escherichia coli (ATCC 11229). As to conditions: Ec, 48 hours, read-out: Minimum Inhibitory Concentration (MIC). As for the experimental part: (§1) The minimum inhibitory concentration (MIC) for the compounds listed in Table I is determined for bacteria, using nutrient agar, and 7 yeast and fungi, using malt yeast agar. A one percent solution of the test compound is prepared in a mixture of acetone and water.
(§2) Nutrient agar is prepared at pH 6.8, representing a neutral medium, and at pH 8.2, representing an alkaline medium. The nutrient agars are prepared by adding 23 g of nutrient agar to one-liter of deionized water. In addition, the alkaline medium is prepared by adjusting a 0.04M solution of N-(tris-(hydroxymethyl)methyl)glycine buffered deionized water with concentrated sodium hydroxide to a pH of 8.5.
(§3) The test tubes containing the agar are cooled in a water bath until the temperature of the agar is 48° C. Then, an appropriate amount of the one percent solution of the test compound is added (except in the controls where no compound is added) to the respective test tubes so that the final concentrations are 500, 250, 100, 50, 25, 10, 2.5, 1.0 and zero parts per million of the test compound in the agar, thus having a known concentration of test compound dispersed therein. The contents of the test tubes are then transferred to respective petri plates. After drying for 24 hours, the petri plates containing nutrient agar are inoculated with bacteria and those containing malt yeast agar are inoculated with yeast and fungi.
(§4) The inoculation with bacteria is accomplished by using the following procedure. Twenty-four hour-cultures of each of the bacteria are prepared by incubating the respective bacteria in tubes containing nutrient broth for 24 hours at 30° C. in a shaker. Dilutions of each of the 24 hour-cultures are made so that nine separate suspensions (one for each of the nine test bacteria) are made, each containing 10^8 colony forming units (CFU) per mL of suspension of a particular bacteria. Aliquots of 0.3 mL of each of the bacterial suspensions are used to fill the individual wells of Steer's Replicator. For each microbial suspension, 0.3 mL was used to fill three wells (i.e., three wells of 0.3 mL each) so that for the nine different bacteria, 27 wells are filled. The Steer's Replicator is then used to inoculate both the neutral and alkaline pH nutrient agar petri plates.
(§5) The inoculated petri plates are incubated at 30° C. for 48 hours and then read to determine if the test compound which is incorporated into the agar prevented growth of the respective bacteria.
(§6) Table II lists the bacteria, yeast and fungi used in the MIC test described above along with their respective American Type Culture Collection (ATCC) identification numbers.
(§7) In Tables III and IV, the MIC values of the compounds described in Table I as compared to the MIC of a standard commercial preservative (with 1-(3-chloroalkyl)-3,5,7-triaza-1-azoniaadamantane chloride as the active agent and referred to in Tables III and IV as "STANDARD I") are set forth for the bacteria organisms and yeast/fungi organisms which are listed in Table II.

A further assay concerns Salmonella choleraesuis. Nature of the assay: MIC in nutrient agar, Salmonella choleraesuis. Particulars: Salmonella enterica, Sc, 48 hours, read-out: Minimum Inhibitory Concentration (MIC). It is filed as cell-based, Salmonella choleraesuis (ATCC 10708). As for the experimental part: as §1, §2, §3, §4, §5, §6, §7
The test system of a further assay is Klebsiella pneumonias. Nature of the assay: MIC in nutrient agar, Klebsiella pneumonias. It is filed as cell-based, Klebsiella pneumonias (ATCC 8308). Particulars: Kp, 48 hours, read-out: Minimum Inhibitory Concentration (MIC). As for the experimental part:
as §1, §2, §3, §4, §5, §6, §7

A further assay concerns Proteus vulgaris. Nature of the assay: MIC in nutrient agar, Proteus vulgaris. The assay is classed as cell-based, Proteus vulgaris (ATCC 881). As to conditions: Pv, 48 hours, read-out: Minimum Inhibitory Concentration (MIC). The method, then:
as §1, §2, §3, §4, §5, §6, §7

For the next assay, the system named is Pseudomonas aeruginosa. Nature of the assay: MIC in nutrient agar, Pseudomonas aeruginosa (Pa). It is filed as cell-based, Pseudomonas aeruginosa (ATCC 10145). Particulars: Pa, 48 hours, read-out: Minimum Inhibitory Concentration (MIC). The method, then: as §1, §2, §3, §4, §5, §6, §7
The subject of the next assay is Trichoderma viride. Nature of the assay: MIC in malt yeast agar, Trichoderma viride. It is filed as cell-based, Trichoderma viride (ATCC 8678). Particulars: Tv; malt yeast agar; 30° C.; 72 hours for fungi; read-out: Minimum Inhibitory Concentration (MIC). As for the experimental part:
as §1
(§8) Malt yeast agar is prepared by adding 3 g yeast extract and 45 g malt agar per liter of deionized water. The specific agar is dispensed in 30 mL aliquots into 25×200 mm test tubes, capped and autoclaved for 15 minutes at 115° C.
as §3
(§9) The inoculation with the yeast and fungi is accomplished as follows. Cultures of yeast and fungi are incubated for seven days on malt yeast agar at 30° C. These cultures are used to prepare suspensions by the following procedure. A suspension of each organism is prepared by adding 10 mL of sterile saline and 10 microliters of octylphenoxy polyethoxy ethanol to the agar slant of yeast or fungi. The sterile saline/octylphenoxy polyethoxy ethanol solution is then agitated with a sterile swab to suspend the microorganism grown on the slant. Each resulting suspension is diluted into sterile saline (1 part suspension: 9 parts sterile saline). Aliquots of these dilutions are placed in individual wells of Steer's Replicator and petri plates inoculated as previously described. The petri plates are incubated at 30° C. and read after 48 hours for yeast and 72 hours for fungi.
as §6, §7

Another assay has as its system Fusarium oxysporum. Nature of the assay: MIC in malt yeast agar, Fusarium oxysporum. The assay is classed as cell-based, Fusarium oxysporum (ATCC 48112). Particulars: Fo; malt yeast agar; 30° C.; 72 hours for fungi; read-out: Minimum Inhibitory Concentration (MIC). As for the experimental part:
as §1, §8, §3, §9, §6, §7

A further assay deals with Penicillium chrysogenum. Nature of the assay: MIC in malt yeast agar, Penicillium chrysogenum. It is filed as cell-based, Penicillium chrysogenum (ATCC 9480). As to conditions: Pc; malt yeast agar; 30° C.; 72 hours for fungi; read-out: Minimum Inhibitory Concentration (MIC). The method, then: as §1, §8, §3, §9, §6, §7
Another assay relates to Aureobasidium pullulan. Nature of the assay: MIC in malt yeast agar, Aureobasidium pullulan. As to conditions: Ap; malt yeast agar; 30° C.; 72 hours for fungi; read-out: Minimum Inhibitory Concentration (MIC). It is filed as cell-based, Aureobasidium pullulan (ATCC 16622). As for the experimental part: as §1, §8, §3, §9, §6, §7
For a further assay, the system named is Bacillus subtilis. Nature of the assay: MIC in nutrient agar, Bacillus subtilis. It is filed as cell-based, Bacillus subtilis (ATCC 8473). As to conditions: Bs, 48 hours, read-out: Minimum Inhibitory Concentration (MIC). The method, then: as §1, §2, §3, §4, §5, §6, §7

On to `N#CSc1nsnc1SC#N` [Example 2, Bis(thiocyanato)-1,2,5-thiadiazole], for which the MIC in the assay with Escherichia coli (pH 6.8, 30° C.) stood at 25 µg/mL (≈ 125 µM); in the assay on Escherichia coli (pH 8.2, 30° C.), 50 µg/mL (≈ 250 µM); in the assay on Salmonella choleraesuis (pH 6.8, 30° C.), 25 µg/mL (≈ 125 µM); in the assay with Salmonella choleraesuis (pH 8.2, 30° C.), 100 µg/mL (≈ 499 µM); with Klebsiella pneumonias (pH 6.8, 30° C.), 25 µg/mL (≈ 125 µM); with Klebsiella pneumonias (pH 8.2, 30° C.) it was 250 µg/mL (≈ 1250 µM). In addition, the MIC in the assay with Proteus vulgaris (pH 6.8, 30° C.) came out at 25 µg/mL (≈ 125 µM); in the assay with Proteus vulgaris (pH 8.2, 30° C.) it was 100 µg/mL (≈ 499 µM); with Pseudomonas aeruginosa (pH 6.8, 30° C.), 50 µg/mL (≈ 250 µM); in the assay with Pseudomonas aeruginosa (pH 8.2, 30° C.), 250 µg/mL (≈ 1250 µM); in the assay with Trichoderma viride, 5 µg/mL (≈ 25 µM); in the assay on Fusarium oxysporum, 2.5 µg/mL (≈ 12.5 µM). Further, the MIC in the assay on Penicillium chrysogenum was < 1 µg/mL; in the assay on Aureobasidium pullulan, < 1 µg/mL; with Bacillus subtilis (pH 6.8, 30° C.), 25 µg/mL (≈ 125 µM); in the assay with Bacillus subtilis (pH 8.2, 30° C.), 100 µg/mL (≈ 499 µM).
As to `N#CSCSc1nsnc1SCSC#N` [Example 4, Bis(thiomethylthiocyanato)-1,2,5-thiadiazole], the MIC was 25 µg/mL (≈ 85.5 µM) in the assay with Escherichia coli (pH 6.8, 30° C.); < 10 µg/mL in the assay with Escherichia coli (pH 8.2, 30° C.); 25 µg/mL (≈ 85.5 µM) in the assay with Salmonella choleraesuis (pH 6.8, 30° C.); 25 µg/mL (≈ 85.5 µM) with Salmonella choleraesuis (pH 8.2, 30° C.); < 10 µg/mL with Klebsiella pneumonias (pH 6.8, 30° C.); < 10 µg/mL with Klebsiella pneumonias (pH 8.2, 30° C.). Further, the MIC was < 10 µg/mL in the assay on Proteus vulgaris (pH 6.8, 30° C.); < 10 µg/mL with Proteus vulgaris (pH 8.2, 30° C.); < 10 µg/mL in the assay with Pseudomonas aeruginosa (pH 6.8, 30° C.); < 10 µg/mL with Pseudomonas aeruginosa (pH 8.2, 30° C.); 10 µg/mL (≈ 34.2 µM) with Trichoderma viride; < 2.5 µg/mL with Fusarium oxysporum. The MIC with Penicillium chrysogenum was < 2.5 µg/mL; in the assay with Aureobasidium pullulan, < 2.5 µg/mL; in the assay on Bacillus subtilis (pH 6.8, 30° C.) it was < 10 µg/mL; with Bacillus subtilis (pH 8.2, 30° C.), < 10 µg/mL.
